Results: the supplement of paper PMC10331698
± gives the standard deviation of the averaged measurements.

Tests used:
[1] = compound: C=CC(=O)OCCC(F)(F)C(F)(F)C(F)(F)C(F)(F)C(F)(F)C(F)(F)C(F)(F)C(F)(F)F [8:2 Fluorotelomer acrylate]; assay: level (log10 ratio to DMSO vehicle control); higher = higher biomarker level / cell amount than vehicle control; conditions: in DMSO
Method: (§1)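 BioMAP Diversity Plus panel of 12 human primary cell co-culture systems (3C, 4H, LPS, SAg, BT, BF4T, BE3C, CASM3C, HDF3CGF, KF3CT, MyoF, Mphg). Compounds were added 1 h before stimulation and left for 24 h (MyoF 48 h; BT 72 h for soluble read-outs or 6 d for IgG). Biomarkers were read by ELISA, cytotoxicity by SRB, PBMC viability and proliferation by Alamar Blue. Each well value was divided by the mean of 8 DMSO control wells on the same plate and log10 transformed; duplicate blinded samples were tested at 4 concentrations.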

[2] = compound: O=C(Cl)C(F)(F)C(F)(F)C(F)(F)C(=O)Cl [Hexafluoroglutaryl chloride]; assay: as above; conditions: in DMSO
Method: as §1

| Test System | level (log10) ([1]; 6700 nM) | level (log10) ([1]; 20000 nM) | level (log10) ([1]; 60000 nM) | level (log10) ([2]; 6700 nM) | level (log10) ([2]; 20000 nM) | level (log10) ([2]; 60000 nM) |
| --- | --- | --- | --- | --- | --- | --- |
| CASM3C:CD141/Thrombomodulin | 0.0125 ± 0.011 | -0.005 ± 0.0071 | 0.009 ± 0.013 | -0.0055 ± 0.037 | -0.0135 ± 0.063 | -0.0125 ± 0.044 |
| HDF3CGF:CXCL11/I-TAC | -0.007 ± 0.0057 | -0.0095 ± 0.0021 | -0.0105 ± 0.028 | -0.015 ± 0.0057 | -0.0145 ± 0.022 | -0.0085 ± 0.013 |
| KF3CT:CXCL8/IL-8 | -0.011 ± 0.0014 | -0.047 ± 0.076 | -0.117 ± 0.053 | -0.0215 ± 0.013 | -0.0275 ± 0.035 | -0.0085 ± 0.0092 |
| 3C:CD141/Thrombomodulin | -0.0015 ± 0.036 | -0.0295 ± 0.0035 | 0.023 ± 0.072 | -0.0455 ± 0.013 | -0.0275 ± 0.0078 | -0.056 ± 0.057 |
| HDF3CGF:CXCL9/MIG | -0.0115 ± 0.015 | -0.007 ± 0.011 | -0.007 ± 0.0042 | 0.0125 ± 0.018 | -0.0055 ± 0.0064 | 0.0075 ± 0.012 |
| HDF3CGF:TIMP-1 | -0.03 ± 0.02 | -0.0265 ± 0.022 | -0.011 ± 0.061 | 0.002 ± 0.014 | 0.012 ± 0.025 | 0.0395 ± 0.05 |
| lMphg:M-CSF | -0.0195 ± 0.042 | -0.013 ± 0.014 | -0.003 ± 0.016 | 0.011 | -0.021 ± 0.031 | 0.018 ± 0.011 |
| KF3CT:CXCL9/MIG | -0.0065 ± 0.0092 | 0.0005 ± 0.0035 | 0.011 ± 0.0085 | 0.0025 ± 0.011 | 0.0085 ± 0.011 | 0.008 ± 0.0085 |
| KF3CT:PAI-I | -0.009 ± 0.014 | 0.0155 ± 0.012 | 0.001 ± 0.0085 | -0.012 ± 0.028 | -0.0005 ± 0.0078 | -0.0055 ± 0.015 |
| KF3CT:uPA | 0.003 ± 0.013 | -0.0165 ± 0.037 | -0.004 ± 0.0014 | 0.003 ± 0.0099 | 0.0235 ± 0.00071 | 0.015 ± 0.014 |
| CASM3C:M-CSF | 0.003 ± 0.0057 | 0.0095 ± 0.032 | 0.0185 ± 0.04 | -0.001 ± 0.0028 | 0.0095 ± 0.057 | 0.03 ± 0.051 |
| MyoF:Collagen I | -0.0095 ± 0.005 | -0.0205 ± 0.015 | 0.011 ± 0.0099 | 0.004 ± 0.013 | -0.0005 ± 0.025 | 0.0145 ± 0.00071 |
| HDF3CGF:CCL2/MCP-1 | -0.03 ± 0.017 | -0.042 ± 0.031 | -0.0805 ± 0.044 | -0.036 ± 0.0099 | -0.0285 ± 0.037 | 0.0095 ± 0.00071 |
| CASM3C:CD87/uPAR | -0.035 ± 0.021 | -0.027 ± 0.011 | -0.004 ± 0.0014 | -0.014 ± 0.045 | -0.0225 ± 0.012 | -0.015 ± 0.038 |
| MyoF:alpha-SM Actin | 0.0185 ± 0.069 | 0.0145 ± 0.063 | 0.009 ± 0.059 | -0.0115 ± 0.018 | -0.0065 ± 0.057 | -0.0105 ± 0.035 |
| HDF3CGF:MMP-1 | 0.0165 ± 0.015 | 0.026 ± 0.011 | 0.0235 ± 0.029 | 0.0195 ± 0.012 | 0.013 ± 0.0042 | 0.018 |
| MyoF:bFGF | -0.015 ± 0.0028 | -0.015 ± 0.014 | -0.0025 ± 0.0092 | 0.0045 ± 0.0035 | -0.0035 ± 0.0078 | 0.0135 ± 0.0035 |
| CASM3C:CCL2/MCP-1 | -0.0085 ± 0.0021 | -0.012 ± 0.016 | 0.0085 ± 0.032 | -0.0055 ± 0.013 | -0.005 ± 0.0014 | 0.011 ± 0.014 |
| BE3C:SRB | -0.0045 ± 0.0021 | -0.0045 ± 0.0064 | 0.006 ± 0.018 | 0.0045 ± 0.0092 | 0.0065 ± 0.013 | 0.0115 ± 0.0035 |
| KF3CT:TIMP-2 | -0.0125 ± 0.037 | -0.02 | 0.016 ± 0.013 | -0.029 ± 0.023 | 0.003 ± 0.0099 | 0.02 ± 0.034 |
